Values after ≈ are worked out from the molar mass of the structure shown. Structures can show the parent of a compound that is named as a salt. Where two headings read alike, the source gives them in different places.
How the values were obtained:
[1] = test system: Pseudomonas cepacia 296I; test: In vitro antibacterial activity, agar dilution MIC; format: cell-based; conditions: Burkholderia cepacia
Experimental: (§1) Each plate was inoculated with 1:100 (or 1:10 for slow-growing strains, primarily Micrococcus and Streptococcus) dilutions of up to 32 different microorganisms, using a Steers replicator block calibrated to deliver approximately 10^4 colony forming units (CFUs). The inoculated plates were incubated at from about 35° C. to about 37° C. for approximately 20-24 hours. In addition, a control plate using BHI agar containing no test compound was prepared and incubated at the beginning and at the end of each test. The quinolone antibacterial ciprofloxacin was used as a control ("Cntl").
(§2) The MIC was defined as the lowest concentration of test compound yielding no growth (a slight haze or sparsely isolated colonies at the inoculum spot) as compared to the growth control containing no test compound.

[2] = test system: Staph. aureus 1775 Cipro. R.; test: In vitro antibacterial activity, agar dilution MIC; format: cell-based; conditions: Staphylococcus aureus
Experimental: as §1, §2

[3] = test system: P. aeruginosa 2862; test: In vitro antibacterial activity, agar dilution MIC; format: cell-based; conditions: Pseudomonas aeruginosa, 2862
Experimental: as §1, §2

[4] = test system: E. coli DC-2; test: In vitro antibacterial activity, agar dilution MIC; format: cell-based; conditions: Escherichia coli, DC2
Experimental: as §1, §2

[5] = test system: E. coli KNK 437; test: In vitro antibacterial activity, agar dilution MIC; format: cell-based; conditions: Escherichia coli, KNK437
Experimental: as §1, §2

[6] = test system: Klebs. pneumoniae ATCC 8045; test: In vitro antibacterial activity, agar dilution MIC; format: cell-based; conditions: Klebsiella pneumoniae, ATCC8045
Experimental: as §1, §2

[7] = test system: Strep. pyogenes 2548 INDUC; test: microbe, parasite or virus in culture; format: cell-based; conditions: Streptococcus pyogenes, 2548INDUC
Experimental: as §1, §2

[8] = test system: M. luteus ATCC 9341; test: In vitro antibacterial activity, agar dilution MIC; format: cell-based; conditions: Micrococcus luteus, ATCC9341
Experimental: as §1, §2

[9] = test system: Providencia stuartii CMX 640; test: In vitro antibacterial activity, agar dilution MIC; format: cell-based; conditions: CMX640
Experimental: as §1, §2

[10] = test system: Staph. epidermidis 3519; test: In vitro antibacterial activity, agar dilution MIC; format: cell-based; conditions: Staphylococcus epidermidis
Experimental: as §1, §2

[11] = test system: Myco. smegmatis ATCC 114; test: In vitro antibacterial activity, agar dilution MIC; format: cell-based; conditions: Mycolicibacterium smegmatis, ATCC114
Experimental: as §1, §2

[12] = test system: Candida albicans CCH 442; test: In vitro antibacterial activity, agar dilution MIC; conditions: Candida albicans, CCH442
Experimental: as §1, §2

[13] = test system: Staph. aureus CMX 553; test: In vitro antibacterial activity, agar dilution MIC; format: cell-based; conditions: Staphylococcus aureus, CMX553
Experimental: as §1, §2

[14] = test system: Enter. aerogenes ATCC 13048; test: In vitro antibacterial activity, agar dilution MIC; format: cell-based; conditions: Klebsiella aerogenes, ATCC13048
Experimental: as §1, §2

[15] = test system: E. coli SS; test: In vitro antibacterial activity, agar dilution MIC; format: cell-based; conditions: Escherichia coli
Experimental: as §1, §2

[16] = test system: Strep. bovis A5169; test: In vitro antibacterial activity, agar dilution MIC; format: cell-based; conditions: Streptococcus equinus
Experimental: as §1, §2

[17] = test system: Entero. faecium ATCC 8043; test: In vitro antibacterial activity, agar dilution MIC; format: cell-based; conditions: Enterococcus faecium, ATCC8043
Experimental: as §1, §2

[18] = test system: Escherichia coli Juhl; test: In vitro antibacterial activity, agar dilution MIC; format: cell-based
Experimental: as §1, §2

[19] = test system: Staph. aureus 5278; test: In vitro antibacterial activity, agar dilution MIC; format: cell-based; conditions: Staphylococcus aureus
Experimental: as §1, §2

[20] = test system: Strep. pyogenes 930 CONST; test: In vitro antibacterial activity, agar dilution MIC; format: cell-based; conditions: Streptococcus pyogenes
Experimental: as §1, §2

[21] = test system: Staph. aureus ATCC 6538P; test: In vitro antibacterial activity, agar dilution MIC; format: cell-based; conditions: Staphylococcus aureus, ATCC6538P
Experimental: as §1, §2

[22] = test system: Nocardia asteroides ATCC 9970; test: In vitro antibacterial activity, agar dilution MIC; format: cell-based; conditions: ATCC9970
Experimental: as §1, §2

[23] = test system: Staph. aureus 642A; test: In vitro antibacterial activity, agar dilution MIC; format: cell-based; conditions: Staphylococcus aureus
Experimental: as §1, §2

[24] = test system: Strep. agalactiae CMX 508; test: In vitro antibacterial activity, agar dilution MIC; format: cell-based; conditions: Streptococcus agalactiae, CMX508
Experimental: as §1, §2

[25] = test system: Staph. aureus NCTC10649M; test: In vitro antibacterial activity, agar dilution MIC; format: cell-based; conditions: Staphylococcus aureus
Experimental: as §1, §2

[26] = test system: P. aeruginosa K799/WT; test: In vitro antibacterial activity, agar dilution MIC; format: cell-based; conditions: Pseudomonas aeruginosa
Experimental: as §1, §2

[27] = test system: M. luteus ATCC 4698; test: In vitro antibacterial activity, agar dilution MIC; format: cell-based; conditions: Micrococcus luteus, ATCC4698
Experimental: as §1, §2

[28] = test system: Staph. aureus A5177; test: In vitro antibacterial activity, agar dilution MIC; format: cell-based; conditions: Staphylococcus aureus
Experimental: as §1, §2

[29] = test system: P. aeruginosa A5007; test: In vitro antibacterial activity, agar dilution MIC; format: cell-based; conditions: Pseudomonas aeruginosa
Experimental: as §1, §2

[30] = test system: Acinetob. calcoaceticus CMX 669; test: In vitro antibacterial activity, agar dilution MIC; format: cell-based
Experimental: as §1, §2

[31] = test system: P. aeruginosa 5263; test: microbe, parasite or virus in culture; conditions: Pseudomonas aeruginosa
Experimental: as §1, §2

[32] = test system: Strep. pyogenes EES61; test: In vitro antibacterial activity, agar dilution MIC; format: cell-based; conditions: Streptococcus pyogenes
Experimental: as §1, §2

[33] = test system: P. aeruginosa K799/61; test: In vitro antibacterial activity, agar dilution MIC; format: cell-based; conditions: Pseudomonas aeruginosa, K799/61
Experimental: as §1, §2

[34] = test system: P. aeruginosa BMH 10; test: In vitro antibacterial activity, agar dilution MIC; format: cell-based; conditions: Pseudomonas aeruginosa, BMH10
Experimental: as §1, §2

[35] = test system: E. coli H560; test: In vitro antibacterial activity, agar dilution MIC; format: cell-based; conditions: Escherichia coli
Experimental: as §1, §2

[36] = Klebs. pneumoniae ATCC 8045, BHI agar dilution, 20-24 hours, read-out: MIC
[37] = Providencia stuartii CMX 640, BHI agar dilution, 20-24 hours, read-out: MIC
[38] = Staph. aureus CMX 553, BHI agar dilution, 20-24 hours, read-out: MIC
[39] = Nocardia asteroides ATCC 9970, BHI agar dilution, 20-24 hours, read-out: MIC
[40] = Strep. agalactiae CMX 508, BHI agar dilution, 20-24 hours, read-out: MIC

Compound: CC[C@H]1CN(c2c(F)cn3c(=O)c(C(=O)O)cc(C4CC4)c3c2C)C[C@H]1N (relative stereo) [Ex. 3, 8-(cis-3-amino-4-ethylpyrrolidin-1-yl)-1-cyclopropyl-7-fluoro-4H-9-methyl-4-oxo-quinolizine-3-carboxylic acid hydrochloride diastereomer A]
- MIC ([1]; Pseudomonas cepacia 296I, BHI agar dilution, 20-24 hours, read-out: MIC): 0.78 µg/mL
- MIC ([2]; Staph. aureus 1775 Cipro. R., BHI agar dilution, 20-24 hours, read-out: MIC): 0.78 µg/mL
- MIC [3]: 3.1 µg/mL
- MIC ([4]; E. coli DC-2, BHI agar dilution, 20-24 hours, read-out: MIC): 0.2 µg/mL
- MIC ([5]; E. coli KNK 437, BHI agar dilution, 20-24 hours, read-out: MIC): 0.1 µg/mL
- MIC [6, 36]: 0.02 µg/mL
- MIC [7]: 0.05 µg/mL
- MIC [8]: 0.1 µg/mL
- MIC [9, 37]: 0.78 µg/mL
- MIC ([10]; Staph. epidermidis 3519, BHI agar dilution, 20-24 hours, read-out: MIC): 0.02 µg/mL
- MIC ([11]; Myco. smegmatis ATCC 114, BHI agar dilution, 20-24 hours, read-out: MIC): 0.02 µg/mL
- MIC [12]: > 100 µg/mL
- MIC [13, 38]: 0.02 µg/mL
- MIC ([14]; Enter. aerogenes ATCC 13048, BHI agar dilution, 20-24 hours, read-out: MIC): 0.05 µg/mL
- MIC ([15]; E. coli SS, BHI agar dilution, 20-24 hours, read-out: MIC): 0.002 µg/mL
- MIC ([16]; Strep. bovis A5169, BHI agar dilution, 20-24 hours, read-out: MIC): 0.1 µg/mL
- MIC [17]: 0.1 µg/mL
- MIC ([18]; Escherichia coli Juhl, BHI agar dilution, 20-24 hours, read-out: MIC): 0.02 µg/mL
- MIC ([19]; Staph. aureus 5278, BHI agar dilution, 20-24 hours, read-out: MIC): 0.02 µg/mL
- MIC ([20]; 930CONST): 0.05 µg/mL
- MIC ([21]; Staph. aureus ATCC 6538P, BHI agar dilution, 20-24 hours, read-out: MIC): 0.01 µg/mL
- MIC [22, 39]: 0.39 µg/mL
- MIC ([23]; Staph. aureus 642A, BHI agar dilution, 20-24 hours, read-out: MIC): 0.02 µg/mL
- MIC [24, 40]: 0.1 µg/mL
- MIC ([25]; Staph. aureus NCTC10649M, BHI agar dilution, 20-24 hours, read-out: MIC): 0.01 µg/mL
- MIC ([26]; P. aeruginosa K799/WT, BHI agar dilution, 20-24 hours, read-out: MIC): 0.39 µg/mL
- MIC [27]: 0.1 µg/mL
- MIC ([28]; Staph. aureus A5177, BHI agar dilution, 20-24 hours, read-out: MIC): 0.02 µg/mL
- MIC ([29]; P. aeruginosa A5007, BHI agar dilution, 20-24 hours, read-out: MIC): 0.39 µg/mL
- MIC ([30]; Acinetob. calcoaceticus CMX 669, BHI agar dilution, 20-24 hours, read-out: MIC): 0.02 µg/mL
- MIC [31]: 3.1 µg/mL
- MIC ([32]; Strep. pyogenes EES61, BHI agar dilution, 20-24 hours, read-out: MIC): 0.1 µg/mL
- MIC [33]: 0.02 µg/mL
- MIC ([34]; P. aeruginosa BMH 10, BHI agar dilution, 20-24 hours, read-out: MIC): 0.39 µg/mL
- MIC ([35]; E. coli H560, BHI agar dilution, 20-24 hours, read-out: MIC): 0.01 µg/mL

Compound: O=C(O)c1cn(C2CC2)c2cc(N3CCNCC3)c(F)cc2c1=O [Control, ciprofloxacin, reference compound]
- MIC ([1]; 296I): 3.1 µg/mL (≈ 9.36 µM)
- MIC [2]: > 100 µg/mL
- MIC [3]: 12.5 µg/mL (≈ 37.7 µM)
- MIC [4]: 0.2 µg/mL (≈ 0.604 µM)
- MIC [5]: 0.2 µg/mL (≈ 0.604 µM)
- MIC [6, 36]: 0.01 µg/mL (≈ 0.0302 µM)
- MIC [7]: 0.39 µg/mL (≈ 1.18 µM)
- MIC [8]: 3.1 µg/mL (≈ 9.36 µM)
- MIC [9, 37]: 0.78 µg/mL (≈ 2.35 µM)
- MIC [10]; 3519: 0.39 µg/mL (≈ 1.18 µM)
- MIC [11]: 1.56 µg/mL (≈ 4.71 µM)
- MIC [12]: > 100 µg/mL
- MIC [13, 38]: 0.78 µg/mL (≈ 2.35 µM)
- MIC [14]: 0.05 µg/mL (≈ 0.151 µM)
- MIC [15]: 0.005 µg/mL (≈ 0.0151 µM)
- MIC ([16]; A5169): 1.56 µg/mL (≈ 4.71 µM)
- MIC ([17]; Entero. faecium ATCC 8043, BHI agar dilution, 20-24 hours, read-out: MIC): 0.78 µg/mL (≈ 2.35 µM)
- MIC ([18]; Escherichia coli): 0.05 µg/mL (≈ 0.151 µM)
- MIC [19]; 5278: 0.39 µg/mL (≈ 1.18 µM)
- MIC ([20]; Strep. pyogenes 930 CONST, BHI agar dilution, 20-24 hours, read-out: MIC): 0.78 µg/mL (≈ 2.35 µM)
- MIC [21]: 0.05 µg/mL (≈ 0.151 µM)
- MIC [22, 39]: 25 µg/mL (≈ 75.4 µM)
- MIC ([23]; 642A): 0.39 µg/mL (≈ 1.18 µM)
- MIC [24, 40]: 0.78 µg/mL (≈ 2.35 µM)
- MIC ([25]; NCTC10649M): 0.39 µg/mL (≈ 1.18 µM)
- MIC ([26]; K799/WT): 0.1 µg/mL (≈ 0.302 µM)
- MIC [27]: 1.56 µg/mL (≈ 4.71 µM)
- MIC ([28]; A5177): 0.39 µg/mL (≈ 1.18 µM)
- MIC ([29]; A5007): 0.2 µg/mL (≈ 0.604 µM)
- MIC [30]: 0.39 µg/mL (≈ 1.18 µM)
- MIC [31]: 12.5 µg/mL (≈ 37.7 µM)
- MIC ([32]; EES61): 0.39 µg/mL (≈ 1.18 µM)
- MIC [33]: 0.02 µg/mL (≈ 0.0604 µM)
- MIC [34]: 0.1 µg/mL (≈ 0.302 µM)
- MIC ([35]; H560): 0.01 µg/mL (≈ 0.0302 µM)

Compound: Cc1c(N2C[C@@H]3CCCN[C@@H]3C2)c(F)cn2c(=O)c(C(=O)O)cc(C3CC3)c12 [Ex. 1, 1-cyclopropyl-8-(S,S-2,8-diaza-8-bicyclo[4.3.0]-nonyl)-7-fluoro-4H-9-methyl-4-oxo-quinolizine-3-carboxylic acid hydrochloride]
- MIC ([1]; 296I): 0.78 µg/mL
- MIC [2]: 0.39 µg/mL
- MIC [3]: 3.1 µg/mL
- MIC [4]: 0.05 µg/mL
- MIC [5]: 0.05 µg/mL
- MIC [6]: 0.01 µg/mL
- MIC [7]: 0.02 µg/mL
- MIC [8]: 0.1 µg/mL
- MIC ([9]; Providencia stuartii): 0.39 µg/mL
- MIC [10]; 3519: 0.02 µg/mL
- MIC [11]: 0.02 µg/mL
- MIC [12]: > 100 µg/mL
- MIC [13]: 0.05 µg/mL
- MIC [14]: 0.02 µg/mL
- MIC [15]: 0.002 µg/mL
- MIC ([16]; A5169): 0.05 µg/mL
- MIC [17]: 0.1 µg/mL
- MIC ([18]; Escherichia coli): 0.005 µg/mL
- MIC [19]; 5278: 0.01 µg/mL
- MIC ([20]; 930CONST): 0.05 µg/mL
- MIC [21]: 0.01 µg/mL
- MIC ([22]; Nocardia asteroides): 3.1 µg/mL
- MIC ([23]; 642A): 0.02 µg/mL
- MIC [24]: 0.05 µg/mL
- MIC ([25]; NCTC10649M): 0.01 µg/mL
- MIC ([26]; K799/WT): 0.2 µg/mL
- MIC [27]: 0.1 µg/mL
- MIC ([28]; A5177): 0.02 µg/mL
- MIC ([29]; A5007): 0.2 µg/mL
- MIC [30]: 0.02 µg/mL
- MIC [31]: 3.1 µg/mL
- MIC ([32]; EES61): 0.05 µg/mL
- MIC [33]: 0.02 µg/mL
- MIC [34]: 0.1 µg/mL
- MIC ([35]; H560): 0.005 µg/mL

From patent US5837868A, “Process for preparation of chiral 3-amino-pyrrolidine and analogous bicyclic compounds” (Abbott Laboratories, priority 1997, dated 1998)
